Laboratory results: patent US8884023B2, “Pyrano [3,2-D][1,3]thiazole as glycosidase inhibitors” (priority 2011, dated 2014)
Read-outs that look alike come from different tables or passages of the source.

Tests used:
O-GlcNAcase = target: T1, O-GlcNAcase (UniProt Q8VIJ5); format: cell-based
T1 sequence (Q8VIJ5 1-916): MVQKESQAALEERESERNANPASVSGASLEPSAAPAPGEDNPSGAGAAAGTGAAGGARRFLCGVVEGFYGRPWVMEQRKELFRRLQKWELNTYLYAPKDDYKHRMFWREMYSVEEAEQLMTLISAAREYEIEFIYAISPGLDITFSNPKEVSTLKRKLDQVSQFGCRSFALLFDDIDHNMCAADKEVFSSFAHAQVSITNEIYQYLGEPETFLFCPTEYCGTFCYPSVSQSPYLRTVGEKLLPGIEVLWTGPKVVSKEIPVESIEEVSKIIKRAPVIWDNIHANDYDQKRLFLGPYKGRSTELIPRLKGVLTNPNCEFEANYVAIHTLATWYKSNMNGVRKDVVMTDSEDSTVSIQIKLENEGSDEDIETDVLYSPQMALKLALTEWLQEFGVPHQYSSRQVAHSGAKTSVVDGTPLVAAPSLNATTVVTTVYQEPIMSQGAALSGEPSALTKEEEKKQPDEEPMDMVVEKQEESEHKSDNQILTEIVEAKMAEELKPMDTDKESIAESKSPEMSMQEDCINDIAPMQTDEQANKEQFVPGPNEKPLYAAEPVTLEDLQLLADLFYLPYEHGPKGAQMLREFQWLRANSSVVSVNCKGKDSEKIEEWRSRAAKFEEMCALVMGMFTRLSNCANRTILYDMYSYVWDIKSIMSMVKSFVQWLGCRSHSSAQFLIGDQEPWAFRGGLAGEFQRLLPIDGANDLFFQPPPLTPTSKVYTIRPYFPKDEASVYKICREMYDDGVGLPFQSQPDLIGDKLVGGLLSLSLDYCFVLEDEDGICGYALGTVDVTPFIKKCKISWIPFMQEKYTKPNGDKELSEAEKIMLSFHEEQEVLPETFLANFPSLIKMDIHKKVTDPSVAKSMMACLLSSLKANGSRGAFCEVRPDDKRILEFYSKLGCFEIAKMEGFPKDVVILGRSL
Source text: Assay for the Determination of Cellular Activity for Compounds that Inhibit O-GlcNAcase Activity
Inhibition of O-GlcNAcase, which removes O-GlcNAc from cellular proteins, results in an increase in the level of O-GlcNAcylated proteins in cells. An increase in the O-GlcNAcylation of cellular proteins can be measured by an antibody, such as CTD110.6, that binds O-GlcNAcylated proteins. The amount of O-GlcNAcylated protein can be determined by the enzyme linked immunoabsorbant assay (ELISA) technique.
Cell lines, such as rat B35, rat PC-12 and human SH-SY5Y cells, expressing endogenous levels of O-GlcNAcase, could be utilized. Cells were plated in 96-well plates at a density of approximately 10,000 cells/well. Compounds to be tested were dissolved in DMSO as 10 mM stock solution, and then diluted first with DMSO and then culture media using the Bravo workstation. Cells were treated with diluted compounds for approximately 16 hours. […] To prepare a cell lysate, the media from compound treated cells were removed, and the cells were washed once with Dulbecco's phosphate buffered saline (DPBS) and then lysed for 30 minutes in 100 μl/well of ice cold RIPA buffer containing a protease inhibitor cocktail.
The ELISA portion of the assay was performed in EIA/RIA plates that were coated overnight at 4 C with 80 μl/well of cell lysate. The following day the wells were washed 6 times with 200 μl of wash buffer (0.05% Tween20 in DPBS). The wells were blocked with 200 μl blocking buffer (1% BSA, 0.05% Tween20 in DPBS) for 1 h at room temperature. Each well was then washed 6 times with 200 μl of wash buffer. The anti-O-GlcNAc antibody CTD110.6 (Covance, Princeton, N.J.) was added at 100 μl/well at a concentration of 10 μg/ml. The plates were incubated for 1 h at room temperature. The wells were then washed 6 times with 200 μl/well of wash buffer. To detect the amount of CTD110.6 bound to the cell lysate, alkaline phosphatase conjugated goat anti-mouse IgM (diluted 1:500 in blocking buffer) was added at 100 μl/well and incubated for 45 min at room temperature. Each well was then washed 6 times with 200 μl/well of wash buffer. PNPP tablets dissolved in diethanolamine substrate buffer and 100 μl/well were added as detection reagent.
The amount of O-GlcNAcylated protein, as detected by the ELISA assay, was plotted for each concentration of test compound using standard curve fitting algorithms for sigmoidal dose response curves. The values for a four parameter logistic curve fit of the data were determined, with the inflection point of the curve being the potency value for the test compound.

[1] = target: T2, His-Tagged hOGA (human O-GlcNAcase) (Homo sapiens, UniProt O60502); experiment: biochemical
T2 sequence (O60502 1-916): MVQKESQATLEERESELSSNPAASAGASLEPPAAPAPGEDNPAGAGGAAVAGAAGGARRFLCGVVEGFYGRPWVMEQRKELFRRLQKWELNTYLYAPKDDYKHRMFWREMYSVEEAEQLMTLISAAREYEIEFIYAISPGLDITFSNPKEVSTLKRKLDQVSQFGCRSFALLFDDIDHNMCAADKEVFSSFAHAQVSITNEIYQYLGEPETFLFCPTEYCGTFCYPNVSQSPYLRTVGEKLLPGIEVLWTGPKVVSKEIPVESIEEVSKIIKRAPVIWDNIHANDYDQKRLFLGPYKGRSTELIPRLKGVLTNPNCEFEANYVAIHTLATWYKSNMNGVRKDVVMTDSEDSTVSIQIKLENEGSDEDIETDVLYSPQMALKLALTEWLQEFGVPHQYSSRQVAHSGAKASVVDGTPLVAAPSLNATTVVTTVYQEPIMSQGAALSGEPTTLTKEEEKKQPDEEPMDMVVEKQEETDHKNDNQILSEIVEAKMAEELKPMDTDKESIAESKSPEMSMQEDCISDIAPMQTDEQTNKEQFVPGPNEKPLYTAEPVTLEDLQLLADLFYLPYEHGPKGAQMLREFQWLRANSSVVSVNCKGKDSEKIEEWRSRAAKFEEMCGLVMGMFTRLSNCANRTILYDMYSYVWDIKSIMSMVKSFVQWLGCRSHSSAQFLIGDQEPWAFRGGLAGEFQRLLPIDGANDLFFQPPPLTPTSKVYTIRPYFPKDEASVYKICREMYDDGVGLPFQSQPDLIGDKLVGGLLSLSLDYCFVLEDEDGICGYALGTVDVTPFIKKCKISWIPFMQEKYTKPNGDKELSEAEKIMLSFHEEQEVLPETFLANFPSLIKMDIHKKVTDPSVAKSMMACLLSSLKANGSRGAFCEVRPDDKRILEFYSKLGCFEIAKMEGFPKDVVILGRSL
Protocol: Human O-GlcNAcase Enzyme Inhibition Assay
The following reaction components were added to a final volume of 10 μL in McIlvaine's Buffer (pH 6.5):
20 nM His-Tagged hOGA and 10 μM Fluoroscein mono-beta-D-(2-deoxy-2-N-acetyl) glucopyranoside (FL-GlcNAc; Marker Gene Technologies Inc, Part #M1485). […] The amount of fluorescence measured was plotted against the concentration of inhibitor to produce a sigmoidal dose response curve, from which an IC50 was calculated.

[2] = cells expressing endogenous O-GlcNAcase (such as rat B35, rat PC-12, human SH-SY5Y), approximately 16 hours treatment; read-out: OGA cellular inhibition (EC50)
[3] = read-out: OGA enzyme inhibition (IC50)

SMILES	EC50 (O-GlcNAcase; [2]) [nM]	IC50 [1] [nM]	further results
CCNC1=N[C@@H]2[C@@H](O)[C@H](O)[C@@H](Cn3cc(CN(C)c4ccccc4)nn3)O[C@@H]2S1 [compound 71]	> 1000	100 to 500	–
CCNC1=N[C@@H]2[C@@H](O)[C@H](O)[C@@H](Cn3cc(COc4cccc(CO)c4)nn3)O[C@@H]2S1 [compound 75]	> 1000	< 100	–
CCNC1=N[C@@H]2[C@@H](O)[C@H](O)[C@@H](Cn3cc(Cn4nnc5ccccc54)nn3)O[C@@H]2S1 [compound no. 57, (3aR,5R,6S,7R,7aR)-5-{[4-(1H-1,2,3-benzotriazol-1-ylmethyl)-1H-1,2,3-triazol-1-yl]methyl}-2-(ethylamino)-5,6,7,7a-tetrahydro-3aH-pyrano[3,2-d][1,3]thiazole-6,7-diol]	> 1000	< 100	–
C/C=C/C(=O)NC1=N[C@@H]2[C@@H](O)[C@H](O)[C@@H](CO)O[C@@H]2S1 [compound no. 19, (2E)-N-[(3aR,5R,6S,7R,7aR)-6,7-dihydroxy-5-(hydroxymethyl)-5,6,7,7a-tetrahydro-3aH-pyrano[3,2-d][1,3]thiazol-2-yl]but-2-enamide]	> 1000	–	IC50 [1, 3]: 500 to 1000 nM
CCNC1=N[C@@H]2[C@@H](O)[C@H](O)[C@@H](Cn3cc(COc4ccc(F)cc4)nn3)O[C@@H]2S1 [compound 93]	> 1000	–	IC50 [1, 3]: < 100 nM
CCNC1=N[C@@H]2[C@@H](O)[C@H](O)[C@@H](Cn3cc(C(C)(O)c4ccccc4)nn3)O[C@@H]2S1 (stereo partly shown) [compound no. 67, 2-Ethylamino-5-[4-(1-hydroxy-1-phenyl-ethyl)-[1,2,3]triazol-1-ylmethyl]-5,6,7,7a-tetrahydro-3aH-pyrano[3,2-d]thiazole-6,7-diol]	< 100	< 100	–
CCNC1=N[C@@H]2[C@@H](O)[C@H](O)[C@@H](Cn3cc(C(O)c4ccccc4)nn3)O[C@@H]2S1 (stereo partly shown) [compound 68]	> 1000	< 100	–
CCNC1=N[C@@H]2[C@@H](O)[C@H](O)[C@@H](CN=[N+]=[N-])O[C@@H]2S1 [compound no. 1, (3aR,5R,6S,7R,7aR)-5-(azidomethyl)-2-(ethylamino)-5,6,7,7a-tetrahydro-3aH-pyrano[3,2-d][1,3]thiazole-6,7-diol]	–	–	EC50 (O-GlcNAcase; read-out: OGA cellular inhibition (EC50); cells expressing endogenous O-GlcNAcase (such as rat B35, rat PC-12, human SH-SY5Y), approximately 16 hours treatment): 100 to 500 nM
CCNC1=N[C@@H]2[C@@H](O)[C@H](O)[C@@H]([C@H](O)CCCc3ccccc3)O[C@@H]2S1 [compound no. 55, (3aR,5R,6S,7R,7aR)-2-(ethylamino)-5-((R)1-hydroxy-4-phenylbutyl)-5,6,7,7a-tetrahydro-3aH-pyrano[3,2-d][1,3]thiazole-6,7-diol]	–	> 1000	–
CCNC1=N[C@@H]2[C@@H](O)[C@H](O)[C@@H](C(=O)N(C)OC)O[C@@H]2S1 [compound no. 45, (3aR,5S,6S,7R,7aR)-2-(ethylamino)-6,7-dihydroxy-N-methoxy-N-methyl-5,6,7,7a-tetrahydro-3aH-pyrano[3,2-d][1,3]thiazole-5-carboxamide]	–	–	IC50 [1, 3]: > 1000 nM
CCNC1=N[C@@H]2[C@@H](O)[C@H](O)[C@@H](C(=O)N(C)C)O[C@@H]2S1 [compound no. 28, (3aR,5S,6S,7R,7aR)-2-(ethylamino)-6,7-dihydroxy-N,N-dimethyl-5,6,7,7a-tetrahydro-3aH-pyrano[3,2-d][1,3]thiazole-5-carboxamide]	–	> 1000	–
CCNC1=N[C@@H]2[C@@H](O)[C@H](O)[C@@H](Cn3cc(COc4ccccc4CNC)nn3)O[C@@H]2S1 [compound 83]	–	500 to 1000	–
CCNC1=N[C@@H]2[C@@H](OC)[C@H](OC)[C@@H](COC)O[C@@H]2S1 [compound no. 13, (3aR,5R,6S,7R,7aR)—N-ethyl-6,7-dimethoxy-5-(methoxymethyl)-5,6,7,7a-tetrahydro-3aH-pyrano[3,2-d][1,3]thiazol-2-amine]	–	> 1000	–
CCNC1=N[C@@H]2[C@@H](O)[C@H](O)[C@@H](C(O)Cc3ccccc3)O[C@@H]2S1 (stereo partly shown) [compound 52]	–	100 to 500	–
CCNC1=N[C@@H]2[C@@H](O)[C@H](O)[C@@H](Cn3cc(COc4ccccc4C(C)O)nn3)O[C@@H]2S1 (stereo partly shown) [compound 85]	–	100 to 500	–
CCNC1=N[C@@H]2[C@@H](O)[C@H](O)[C@@H](C=O)O[C@@H]2S1 [compound no. 47, (3aR,5S,6S,7R,7aR)-2-(ethylamino)-6,7-dihydroxy-5,6,7,7a-tetrahydro-3aH-pyrano[3,2-d][1,3]thiazole-5-carbaldehyde]	–	< 100	–
CCN(C(=O)OC)C1=N[C@@H]2[C@@H](O)[C@H](O)[C@@H](CO)O[C@@H]2S1 [compound no. 49, Methyl-[(3aR,5R,6S,7R,7aR)-6,7-dihydroxy-5-(hydroxymethyl)-5,6,7,7a-tetrahydro-3aH-pyrano[3,2-d][1,3]thiazol-2-yl]ethylcarbamate]	–	< 100	–
CCNC1=N[C@@H]2[C@@H](O)[C@H](O)[C@@H](C(=O)O)O[C@@H]2S1 [compound no. 9, (3aR,5S,6S,7R,7aR)-2-(ethylamino)-6,7-dihydroxy-5,6,7,7a-tetrahydro-3aH-pyrano[3,2-d]thiazole-5-carboxylic acid]	–	–	IC50 [1, 3]: > 1000 nM
